Where two headings read alike, the source gives them in different places.
Key:
E. coli [1] = details: DPI and ciprofloxacin, optical density over 8 hours
Text: FIG. 6A-I: DPI generates ROS, activates the SOS response, and antagonizes ciprofloxacin. a) Median, single-cell CellROX signal as a function of time for DPI (blue), ciprofloxacin (orange), and an untreated control (yellow). b) Efficacy of DPI in aerobic and anaerobic conditions. […] Brightness and contrast is the same for all images. […] The dose response for the wild-type (WT) cells is depicted in green or purple, respectively. Shaded errorbars equal to the standard deviation in logspace between 3 replicates. […] Each square in the heatmap was the mean of duplicate conditions. Colorbar correspond to the log10 (CFUs/mL) for each dose combination. […] Optical density was measured for each condition over 8 hours and the integrated area under the growth curve (AUGC) is depicted (colorbar). i) Dose response curves for temporally staggered combinations. All treatments lasted for 24 hours total. Pretreated conditions were treated for 2 hours with a single drug followed by 22 hours with both drugs.
To test for antagonism, Applicants measured viability in a time-resolved, checkerboard assay using GVA (FIGS. 6f, 21). In the checkerboard assay, DPI was combined with either ciprofloxacin or gentamicin across a 6×6 dose matrix. The ease of GVA enabled sampling the checkerboard over time, resulting in a complete pharmacokinetic profile of the drug-drug interaction.

S. typhimuirium = details: DPI crossed with ciprofloxacin or gentamicin
Procedure: (§1) Strains and growth conditions: E. coli strain BW25113 was used unless otherwise noted in the text. This strain was acquired from the Yale Coli Genetic Stock Center. E. coli was grown in LB (Sigma Aldrich) at 37° C. in a shaking incubator. B. subtilis strain W168 was a kind gift from the Garner lab and was grown in LB at 37° C. in a shaking incubator. P. putida strain KT2440 was a kind gift from Jacob Fenster and was grown in LB at 30° C. in a shaking incubator. S. typhimurium strain SL1344 was a kind gift from the Corrie Detweiler and was grown in LB at 37° C. in a shaking incubator. S. cerevisiae strain BY4741 was a kind gift from Roy Parker and was grown in YEPD at 30° C. in a shaking incubator. P. aeruginosa strain PA01 was a kind gift from the Zemer Gitai and was grown in LB at 37° C. in a shaking incubator. Knockouts were selected from the Keio collection (Dharmacon). The PEC promoter library in E. coli was acquired from Dharmacon (PEC3877).

stationary phase E. coli = details: for increase in viability as compared to either drug alone: 24 hours treatment
Procedure: (§2) For stationary phase treatments, bacterial cells were grown overnight (≥16 hours) in a shaking incubator (180 RPM). For P. putida only, cells were grown for 2 days. Upon entering the stationary phase, cells were distributed into a 96 well flat-bottom plates with 100 μL of cells per well. Drug treatments at 1000× were plated into a separate 96 well-round bottom plate. A 100 nL pin transfer was used to dilute the drug plate into the cell plate at a 1:1000 ratio. This plate was then placed into a shaking incubator for the experimental time. To measure antibiotic treatments in the exponential phase, overnight culture was diluted 1:1000 into fresh LB. This culture was then placed into the incubator for 2 hours. After this incubation, the cells were then distributed to the 96 well plate followed by drug treatment.
(§3) Embedding for GVA: The goal for embedding was to have a uniformly mixed sample in liquid hydrogel that would quickly solidify the 3D mold. Applicants used 0.5% agarose as a convenient hydrogel that would solidify quickly and prevent cell motility once solidified.

[2] = system: cytoplasmic superoxide (ROS) in E. coli; assay: Single-cell CellROX fluorescence (ROS levels) over time; format: cell-based, Escherichia coli; details: for effect on ROS (CellROX signal) over time: lethal dose, compared to untreated control
Procedure: (§4) Microscopy measurements: For all microscopy experiments, cells from overnight cultures were diluted 1:100 in minimal media (PMM) and shaken for 2 hours at 37° C. to ensure cells had exited lag phase. After 2 hours of growth, 2 μL of dilute cell culture was added to the top of a cooled, 200 μL 2% low melt agarose pad with CellROX dye (5 μM). The agarose pad was molded to fit in 96-well square bottom plates (Brooks Automation, MGB096-1-2-LG-L). After 10 minutes of drying, the pad with affixed cells was inverted and pressed into the bottom of an imaging plate. Fields of view (FOV) were selected manually on the microscope. After FOVs were selected and before the imaging started, the drug was added on top as done previously.

E. coli [3] = details: 4 hours of treatment, less than 10 μg/mL DPI
Text: (§5) Filamentation is a classic hallmark of SOS activation and increases in ROS are an established SOS activator. Therefore, Applicants wondered if DPI was activating SOS. Applicants examined the promoter activity of genes downstream of lexA using the PEC GFP-promoter library. LexA is a master transcriptional repressor of genes in the SOS regulon such as pol, dinB, dinG, and yjiH, and is auto-catalytically degraded by activated recA.
as §4

[4] = system: promoters of genes downstream of lexA (pol, dinB, dinG, yjiH, lexA)
Text: as §5, §1, §4

[5] = system: E. coli, stationary phase and exponential phase; assay: GVA viability screen of an 80-compound drug library, 96 well format; format: cell-based, Escherichia coli; details: treated for 4 hours, duplicate
Procedure: FIGS. 27A-B: Screen of compounds that affect viability in exponential and stationary phase using data from a GVA assay in 96 well format drug testing. The antibiotic potential of a drug library (80 compounds) was tested against exponential and stationary phase bacteria in duplicate. (A) Viability reduction of compounds in exponential (top) and stationary (bottom) phase cells. Each x is the mean of 2 biological replicates. (B) Scatter plot of the viability screen comparing exponential and stationary phase activity. Each blue dot represents the mean of 2 replicates of a compound treatment. Red dots represent DMSO controls. The dashed lines represent 3 times the standard deviation of the negative controls. Screen was performed with E. coli with both stationary phase and exponential phase bacterial populations. Both phases were screened in duplicate. 80 compounds and 16 controls were screened. Cells in stationary and exponential phase were treated with the compound for 4 hours, followed by casting into pipet tips using the GVA protocol.

E. coli knockout mutants = system: E. coli knockout mutants
Procedure: as §1, §2, §3

E. coli strain BW25113 = assay: Geometric Viability Assay (GVA) of drug-treated stationary and exponential E. coli cultures; format: cell-based, Escherichia coli; details: for activity in dose response, stationary versus exponential cultures (follow up of Enzo library hits): stationary and exponential cultures; for activity in aerobic versus anaerobic environments: stationary phase cells; for resistance of stationary phase cells compared with exponentially growing cells: 3 antibiotics, 6 concentrations, 5 durations; for reduction in viability: within an hour
Text: Previous studies have found slow growth is a non-inheritable form of antibiotic tolerance buying time for viable cells to develop genetic resistance. Slow-growing cells commonly have reduced metabolic activity and DNA replication as compared to exponentially growing cells. As a result, slow-growing cells are refractory to antibiotics targeting DNA synthesis (fluoroquinolones), protein translation (aminoglycosides), and cell wall biogenesis (beta-lactams). Growth-dependent tolerance can only be observed by measuring viability but the tedium and cost of the drop CFU assay limits extensive profiling. Using GVA, Applicants directly compared the viability of exponentially growing cells and stationary phase cells to different doses of three antibiotics for varying amounts of time. In total, Applicants tested 3 antibiotics at 6 different concentrations for 5 different durations against stationary and exponential cells, in duplicate, for a total of 360 viability measurements (FIG. 5a,b).
To explore the GVA technique's potential for high throughput viability measurements, Applicants screened the ICCB Enzo Bioactive library (469 compounds) against stationary and exponentially growing cultures (FIG. 5c,d). […] The viability of BW25113 E. coli treated with the Enzo library was measured in both exponential and stationary phase. Including controls and removing pipette errors, 2267 conditions were measured. […] Mitomycin C is a known antibiotic acting through DNA cross-linking. […] Phentolamine is an α-adrenergic receptor antagonist.
as §2, §3

[6] = 24 hours total, 2 hours single drug then 22 hours both drugs

In the case of `c1ccc2c(c1)[I+]c1ccccc1-2` [DPI, diphenyleneiodonium], the “antagonism in growth inhibition assay” value (E. coli [1]) is reported as “not observed”, the “antagonism of ciprofloxacin and gentamicin” value (S. typhimuirium) is reported as “also observed” and the “effect of 2 hours DPI pretreatment before adding ciprofloxacin” value (stationary phase E. coli; [6]) is reported as “further increased protection”. The “effect of 2 hours ciprofloxacin pretreatment before DPI” value (stationary phase E. coli; [6]) was “reduced DPI's antagonistic effects”, the “increase in viability as compared to either drug alone” value (stationary phase E. coli; DPI combined with ciprofloxacin) was 1,000 fold and the “increase in viability as compared to either drug alone” value (stationary phase E. coli; DPI combined with gentamicin) was 1,000 fold. For the same compound, the “ROS after the initial decrease” value ([2]; lethal DPI dose) was “rapid spike in ROS”, the “time to ROS nadir after the drug was added” value ([2]; lethal DPI dose) was “around 75 minutes” and the “effect on ROS (CellROX signal) over time” value [2] was “substantially decreased ROS”. The cell morphology (E. coli [3]) was “formation of bacterial filaments”, the “dinB, dinG, and yjiH promoter activity” value [4] was “DPI-dependent increase” and the pol promoter activity ([4]; compared to a ribosomal protein control (rrnB)) was “persistent, dose-dependent induction”. For the same compound, the “time to increased lexA promoter activity after DPI addition” value ([4]; lexA promoter) was ≤ 90 min, the “dose giving the highest promoter activity” value ([4]; pol promoter, dose where filamentation was observed) was 3 µg/mL and the “activity in viability screen” value [5] was “bactericidal activity”. The “potency in knockouts of other DNA repair enzymes, redox repair enzymes, or ROS scavengers” value (E. coli knockout mutants; either growth phase) was “did not substantially change the potency”, the “susceptibility of recA knockouts” value (E. coli knockout mutants; recA knockout, stationary and exponential phases) was “more susceptible to DPI” and the “potency in yedZ and fre knockouts” value (E. coli knockout mutants; stationary cells) was “modestly increased the potency”. For the same compound, the “activity in dose response, stationary versus exponential cultures (follow up of Enzo library hits)” value (E. coli strain BW25113) was “active against both stationary and growing cultures”, the “efficacy on adding a ROS scavenger (ascorbic acid)” value (E. coli strain BW25113; increasing concentrations of ascorbic acid) was “reduced DPI efficacy” and the “viability at intermediate concentrations” value (E. coli strain BW25113; intermediate DPI concentrations, GVA) was “maintained viability”. For the same compound, the “activity in aerobic versus anaerobic environments” value (E. coli strain BW25113; 24 hours) was “less active in anaerobic cultures”.
With `Cc1cccc(CCN2CCC(C(=O)c3ccc(NS(C)(=O)=O)cc3)CC2)n1` [E-4031] the “activity in dose response, stationary versus exponential cultures (follow up of Enzo library hits)” value (E. coli strain BW25113) was “did not have any dose-dependent effect on viability”.
`CC1(C)S[C@@H]2[C@H](NC(=O)C(C(=O)O)c3ccccc3)C(=O)N2[C@H]1C(=O)O` (some centres unmarked) [carbenicillin] was tested, and the “resistance of stationary phase cells compared with exponentially growing cells” value (E. coli strain BW25113; GVA) was “more resistant”, the “change in viable cells” value (E. coli strain BW25113; exponential cells, 10 μg/mL, after 24 hours treatment) was “increase in viable cells” and the “change in number of colonies” value (E. coli strain BW25113; exponential cells, 10 μg/mL, first 6 hours) was “no change in the number of colonies”. The decrease in viability (E. coli strain BW25113; exponential cells, 100 μg/mL, 24 hours) was 10,000 fold and the decline in viability (E. coli strain BW25113; stationary cells, 100 μg/mL, 24 hours) was < 10 fold.
`O=C(O)c1cn(C2CC2)c2cc(N3CCNCC3)c(F)cc2c1=O` [ciprofloxacin] was tested, and the “effect on ROS (CellROX signal) over time” value [2] was “monotonically increasing levels of ROS”, the pharmacodynamic profile (E. coli strain BW25113; 10 μg/mL, initial killing within an hour, stable through 6 hours, second phase by 24 hours) was “biphasic pharmacodynamic profile” and the “resistance of stationary phase cells compared with exponentially growing cells” value (E. coli strain BW25113; GVA) was “more resistant”. The reduction in viability (E. coli strain BW25113; exponentially growing cultures, 10 μg/mL) was 10 fold, the reduction in viability (E. coli strain BW25113; stationary cultures, 10 μg/mL) was 10 fold and the “activity in aerobic versus anaerobic environments” value (E. coli strain BW25113; 24 hours) was “less active in anaerobic cultures”.
`CO[C@@]12[C@H](COC(N)=O)C3=C(C(=O)C(C)=C(N)C3=O)N1C[C@@H]1N[C@@H]12` [mitomycin C] was tested, and the “activity in viability screen” value [5] was “bactericidal activity” and the “activity in dose response, stationary versus exponential cultures (follow up of Enzo library hits)” value (E. coli strain BW25113) was “more active against exponentially growing cells compared to cells in stationary phase”.
With `NC(=Nc1ccccc1)NC(=O)c1nc(Cl)c(N)nc1N` [phenamil] the “activity in dose response, stationary versus exponential cultures (follow up of Enzo library hits)” value (E. coli strain BW25113) was “did not have any dose-dependent effect on viability”.
`Cc1ccc(N(CC2=NCCN2)c2cccc(O)c2)cc1` [phentolamine] was tested, and the “sensitivity of stationary versus exponentially growing cells” value (E. coli strain BW25113; high concentrations (20 μg/mL)) was “stationary cells were more sensitive”.
gentamicin was tested, and the “resistance of stationary phase cells compared with exponentially growing cells” value (E. coli strain BW25113; GVA) was “more resistant”, the “activity in aerobic versus anaerobic environments” value (E. coli strain BW25113; 24 hours) was “less active in anaerobic cultures” and the “reduction in stationary phase cell viability” value (E. coli strain BW25113; stationary phase, 10 μg/mL, full 24 hours) was > 10 fold.
